Experimental data taken from patent EP0804408B1, “NOVEL 4-SUBSTITUTED 2,6-DI-TERT-BUTYLPHENOL COMPOUNDS, PHARMACEUTICAL COMPOSITIONS CONTAINING SAME AND PREPARATION METHOD THEREFOR” (priority 1994, dated 1996).
Marks after values point to notes of the source that are not given here.

Columns and labels:
cellules MT4 = test: Cytotoxicity control on MT4 cells (uncontaminated AVF1 samples, diluted and ultracentrifuged); assay type: cell-based, humaines; conditions: non contaminé, dilué et centrifugé, inoculated at dilution 1/4, 10 days culture
Experimental: • Contrôles négatifs : • . Les cellules utilisées pour le titrage, non infectées (culture témoin). • . les trois concentrations de AVF1 utilisées dans l'étude, diluées en tampon NTE et ultracentrifugées. Ces échantillons (contrôles négatifs) ont été utilisés pour vérifier l'absence de toxicité due à des traces résiduelles de AVF1, sur les cellules MT4. • Contrôles positifs : • . Le VIH-1 dilué en milieu de culture à la dilution réalisée pour l'étude, immédiatement aliquoté et stocké à -80°C (contrôle positif). • . Le VIH-1 dilué en milieu de culture à la dilution réalisée pour l'étude, puis dilué en tampon NTE, ultracentrifugé, filtré sur un filtre de 0,45 µm, aliquoté, stocké à -80°C et titré ultérieurement (contrôle de centrifugation). • . Le VIH-1 dilué en milieu de culture à la dilution réalisée pour l'étude, laissé 10 minutes à température ambiante, puis dilué en tampon NTE, ultracentrifugé, filtré sur un filtre de 0,45 µm, aliquoté, stocké à -80°C et titré ultérieurement (contrôle expérimental).
Le contrôle de toxicité a été réalisé dans des conditions identiques à celles décrites pour la méthode de titrage, mais en inoculant les cellules MT4 avec les échantillons non contaminés par le VIH-1 et décrits précédemment (contrôle négatif).
Le critère de non toxicité du produit est établi a été établi en comparant l'aspect morphologique et la viabilité des cellules MT4 inoculées avec du milieu de culture (culture témoin) ou avec les échantillons non contaminés (contrôles négatifs) après 10 jours de culture.

[1] = tested on: NO-synthase inductible (iNOS); test: iNOS induction test: nitrites in RAW264.7 supernatants by Griess reaction after nitrate reduction; assay type: cell-based, murins
Excerpt: Cette hypothèse a été contrôlée en dosant les nitrites dans des surnageants de culture de macrophages murins de lignées activées en présence de AVF1. Les nitrites ont été dosés par la réaction de Griess après réduction de tous le nitrates grâce à la nitrate réductase de Pseudomonas oleoverans (Granger et al., J. Immunol., 1991, 146, 1294-1302). La spécificité de la réaction a été prouvée par l'emploi d'un inhibiteur spécifique de la synthèse du monoxyde d'azote, la N^G-monométhyl-L-arginine (L-NMMA).
Le test d'induction iNOS consiste à ensemencer les macrophages RAW264.7 dans des plaques à 24 puits à raison de 1 x 10^6 sous 1,6 ml. Après 24 heures de culture permettant d'obtenir un tapis cellulaire complet, AVF1, dilué de raison 10 dans des des doses ne donnant pas de toxicité cellulaire (de 10^-6 à 10^-8 %), est ajouté dans 100 µl par cupule soit sur des macrophages sans activateur, avec ou sans l'inhibiteur de iNOS (action directe du produit sur les macrophages) soit en présence des inducteurs, avec ou sans inhibiteur (action du produit sur des macrophages activés).
Après 24 heures de culture, les surnageants sont prélevés, centrifugés 10 minutes à 100 g à température ambiantes pour éliminer les éventuels débris cellulaires puis utilisés pour le dosage des nitrites.
Deux volumes des surnageants clarifiés sont réduits en présence d'un volume d'une suspension de Pseudomonas oleovorans à 100 mg/ml et un volume de D-MEM sans rouge de phénol. Après une incubation de 90 minutes à 37°C sans agitation, les mélanges sont centrifugés 5 minutes à 4 000 g pour éliminer les bactéries et dilués au 1/5 et au 1/10 en eau distillée stérile.
100 µl des échantillons réduits et dilués sont distribués dans des séries de 2 puits dans une plaque ELISA (maxicorp, Nunc.). 200 µl du réactif de Griess (mélange ex-temporané volume à volume des solutions de sulfamide à 1,5 g/100 ml de HCl 1,2 N (87,1 mM) - réactif A - et de naphtylènediamine à 0,15 g/100 ml d'eau stérile (5,78 mM) - réactif B -) sont ajoutés.
Cent autres µl d'échantillon servant de blanc de DO sont distribués et mélangés à 200 µl d'un mélange ex-temporané volume à volume d'eau distillée et du réactif colorimétrique A.
Après 30 minutes à température ambiante à l'obscurité, la densité optique (DO) des échantillons est lue à 540 nm au lecteur de plaque pour ELISA.
• Les contrôles du système d'induction iNOS sont composés de : • . Témoin cellules consistant en des macrophages ne recevant que du milieu de culture. • . Témoin d'induction consistant en des macrophages traités par 100 µl de lipopolysaccharide (LPS à 4 µg/ml, Difco) et par 100 µl d'interféron-γ recombinant (IFN-γ à 1 µU/ml, Boerhinger-Mannheim) afin d'activer la iNOS (Schmidt et al., Mol. Pharmacol., 1992, 41, 614-624). Les solutions mères de LPS et de IFN-γont été conservées respectivement à +4°C et à -20°C avant utilisation. • . Témoin d'inhibition spécifique pour prouver que les nitrites dosés proviennent de l'activation de la iNOS. Il consiste à incorporer à la culture un inhibiteur spécifique, la L-NMMA (N^G-monométhyl-L-arginine, Calbiochem) (Hibbs et al., Science, 1987, 235, 473-476) à des concentrations de raison 10 allant de 3 à 300 µM. Cette solution a été conservée sous parties aliquotes à -20°C avant utilisation. • Les contrôles de la réaction de Greiss sont composés de : • . Une solution de nitrate de sodium qui permet de contrôler l'activité nitrate-réductase des bactéries. • . Une gamme étalon de nitrite de sodium qui permet de doser les nitrites dans les échantillons. • Le blanc de DO de la gamme étalon contenant 100 µl d'eau distillée et 200 µl du mélange des réactifs A et B.

[2] = AVF1 1 x 10^-6 % (10 nM), IFNγ + LPS + L-NMMA (3 µM)
[3] = AVF1 1 x 10^-6 % (10 nM), IFNγ + LPS + L-NMMA (30 µM)
[4] = AVF1 1 x 10^-6 % (10 nM), IFNγ + LPS + L-NMMA (300 µM)
[5] = AVF1 1 x 10^-7 % (1 nM), IFNγ + LPS + L-NMMA (30 µM)
[6] = AVF1 1 x 10^-7 % (1 nM), IFNγ + LPS + L-NMMA (300 µM)
[7] = AVF1 1 x 10^-8 % (0,1 nM), IFNγ + LPS + L-NMMA (3 µM)
[8] = AVF1 1 x 10^-8 % (0,1 nM), IFNγ + LPS + L-NMMA (300 µM)

With CC(C)(C)c1cc(C(=O)OCCOCCOCCOCCOCCOCCOCCOCCO)cc(C(C)(C)C)c1O [AVF1, 3,5-di-t-butyl-4-hydroxybenzoate d'octaoxyéthylèneglycol] the “Remarques (toxicité sur cellules MT4)” value (cellules MT4; AVF1 dilué à 0,5%) was “Non toxique (échantillon inoculé à la dilution 1/4)”, the “Remarques (toxicité sur cellules MT4)” value (cellules MT4; AVF1 dilué à 1%) was “Non toxique (échantillon inoculé à la dilution 1/4)” and the “Remarques (toxicité sur cellules MT4)” value (cellules MT4; AVF1 dilué à 2%) was “Non toxique (échantillon inoculé à la dilution 1/4)”. For the same compound, the “Concentration moyenne en nitrites en µM sur 2 échantillons” value ([1]; AVF1 1 x 10^-6 % (10 nM), IFNγ + LPS) was 20,9 µM, the “Concentration moyenne en nitrites en µM sur 2 échantillons” value [1, 2] was 5,3 µM and the “Pourcentage d'inhibition de la production de nitrite” value [1, 2] was 74%. For the same compound, the “Concentration moyenne en nitrites en µM sur 2 échantillons” value [1, 3] was 6,3 µM, the “Pourcentage d'inhibition de la production de nitrite” value [1, 3] was 70% and the “Concentration moyenne en nitrites en µM sur 2 échantillons” value [1, 4] was 4,8 µM. The “Pourcentage d'inhibition de la production de nitrite” value [1, 4] was 77%, the “Concentration moyenne en nitrites en µM sur 2 échantillons” value ([1]; AVF1 1 x 10^-6 % (10 nM), cells: Milieu (no activator)) was 5,0* µM and the “Concentration moyenne en nitrites en µM sur 2 échantillons” value ([1]; AVF1 1 x 10^-7 % (1 nM), IFNγ + LPS) was 19,5 µM. The “Concentration moyenne en nitrites en µM sur 2 échantillons” value ([1]; AVF1 1 x 10^-7 % (1 nM), IFNγ + LPS + L-NMMA (3 µM)) was 5,1 µM, the “Concentration moyenne en nitrites en µM sur 2 échantillons” value [1, 5] was 4,9 µM and the “Pourcentage d'inhibition de la production de nitrite” value [1, 5] was 76%. The “Concentration moyenne en nitrites en µM sur 2 échantillons” value [1, 6] was 5,8 µM, the “Pourcentage d'inhibition de la production de nitrite” value [1, 6] was 72% and the “Concentration moyenne en nitrites en µM sur 2 échantillons” value ([1]; AVF1 1 x 10^-7 % (1 nM), cells: Milieu (no activator)) was 4,8* µM. The “Concentration moyenne en nitrites en µM sur 2 échantillons” value ([1]; AVF1 1 x 10^-8 % (0,1 nM), IFNγ + LPS) was 21,6 µM, the “Concentration moyenne en nitrites en µM sur 2 échantillons” value [1, 7] was 5,0 µM and the “Pourcentage d'inhibition de la production de nitrite” value [1, 7] was 76%. The “Concentration moyenne en nitrites en µM sur 2 échantillons” value ([1]; AVF1 1 x 10^-8 % (0,1 nM), IFNγ + LPS + L-NMMA (30 µM)) was 5,2 µM, the “Concentration moyenne en nitrites en µM sur 2 échantillons” value [1, 8] was 5,5 µM and the “Pourcentage d'inhibition de la production de nitrite” value [1, 8] was 74%. The “Concentration moyenne en nitrites en µM sur 2 échantillons” value ([1]; AVF1 1 x 10^-8 % (0,1 nM), cells: Milieu (no activator)) was 5,6* µM, the “induction de monoxyde d'azote (NO) dans les macrophages” value ([1]; AVF1 from 10^-6 % downwards, non-activated macrophages, nitrites in supernatants) was “n'induit pas de monoxyde d'azote (NO)” and the inhibition at 0.01 µM ([1]; Mus musculus, RAW264.7, AVF1 1 x 10^-6 % (10 nM), IFNγ + LPS, read-out: Pourcentage d'inhibition de la production de nitrite) was 0%. The inhibition at 0.001 µM ([1]; Mus musculus, RAW264.7, AVF1 1 x 10^-7 % (1 nM), IFNγ + LPS, read-out: Pourcentage d'inhibition de la production de nitrite) was 6% and the “action sur le niveau de production de NO” value ([1]; macrophages activated by LPS + IFN-γ) was “n'a aucune action sur le niveau de production”.
